Data reported in PubChem BioAssay (NCI).
Values joined by “and” are separate entries in the source; they are usually repeats but may differ in a detail not shown here. Equal entries are not always repeated.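 In this assay, cells in 96-well plates receive the compound at five concentrations for 48 hours. Endpoints are linearly interpolated between the surrounding concentrations. GI50 marks 50% less growth. TGI is the concentration that stops growth completely.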

Legend:
Assay in all cases: NCI anticancer screen, dose series, 48 h
DU-145 prostate = test system: DU-145 prostate
HCC-2998 colon = test system: HCC-2998 colon
HS 578T breast = test system: HS 578T breast
IGROV1 ovarian = test system: IGROV1 ovarian
OVCAR-4 ovarian = test system: OVCAR-4 ovarian
RXF 393 renal = test system: RXF 393 renal
SK-MEL-5 melanoma = test system: SK-MEL-5 melanoma
SNB-75 CNS = test system: SNB-75 CNS
TK-10 renal = test system: TK-10 renal
UO-31 renal = test system: UO-31 renal

SMILES | GI50 (DU-145 prostate) | TGI (DU-145 prostate) | GI50 (HCC-2998 colon) | TGI (HCC-2998 colon) | GI50 (HS 578T breast) | TGI (HS 578T breast) | GI50 (IGROV1 ovarian) | TGI (IGROV1 ovarian) | GI50 (OVCAR-4 ovarian) | TGI (OVCAR-4 ovarian) | GI50 (RXF 393 renal) | TGI (RXF 393 renal) | GI50 (SK-MEL-5 melanoma) | TGI (SK-MEL-5 melanoma) | GI50 (SNB-75 CNS) | TGI (SNB-75 CNS) | GI50 (TK-10 renal) | TGI (TK-10 renal) | GI50 (UO-31 renal) | TGI (UO-31 renal)
Nc1ncnc2c1ncn2C1SC(CO)C(O)C1O (configuration not stated) | 6.93 µM | 26.7 µM | 11.9 µM | 34.5 µM | 70.5 µM | > 100 µM | > 100 µM | > 100 µM | 34.6 µM | > 100 µM | 80.6 µM | > 100 µM | 74.4 µM | > 100 µM | 16.8 µM | 46.3 µM | 60.9 µM | > 100 µM | 18.8 µM | 41.9 µM
COc1cc2nc(NC3CCC3)nc(NC3CCN(C(C)C)CC3)c2cc1OC | 4.04 µM | 14.9 µM | 1.7 µM | 3.46 µM | 2.08 µM | 5.45 µM | 7.08 µM | 24 µM | 3.25 µM | 20.9 µM | 1.38 µM | 2.85 µM | 1.75 µM | 3.15 µM | 1.41 µM | 4.4 µM |  |  | 1.43 µM | 2.78 µM
Cc1ccc(CNc2ccc(Cl)cc2NCc2ccc(C)c(O)c2)cc1O | 7.71 µM | 14.4 µM | 8.96 µM | 16.6 µM | 7.73 µM | 24.6 µM | 8.66 µM | 18 µM | 6.63 µM | 14.4 µM | 7.5 µM | 14.5 µM |  |  | 5.47 µM | 12.1 µM | 8.4 µM | 15.5 µM | 5.42 µM | 11.7 µM
CC[C@@]12CC(C(=O)OC)=C3Nc4ccccc4[C@@]34CCN(C[C@H]3O[C@H]31)[C@@H]24 | > 100 µM | > 100 µM | > 100 µM | > 100 µM | 25.4 µM | > 100 µM | 52.3 µM | > 100 µM | 82.5 µM | > 100 µM | 26.4 µM | > 100 µM | 21.2 µM | 57.7 µM | 14.8 µM | 64.9 µM | > 100 µM | > 100 µM | 34.9 µM | > 100 µM
O=C(/C=C/c1ccccc1)c1ccccn1 |  | 24.8 µM and 40.5 µM |  | 26.7 µM and 35.8 µM |  | 77.3 µM |  | 22.8 µM and 37.9 µM |  | 54.8 µM and 47.2 µM |  | 37.4 µM and 36.5 µM |  | 28.5 µM and 88.6 µM |  | 37.5 µM and 92.7 µM |  | 31 µM and 36.9 µM |  | 31 µM and 46.5 µM
CC1(C)CC[C@]2(C(=O)O)CC[C@]3(C)C(=CC[C@@H]4[C@@]5(C)C/C(=C/c6cccnc6)[C@H](O)C(C)(C)[C@@H]5CC[C@]43C)[C@@H]2C1 | 10.7 µM | > 100 µM | 11.4 µM | 54.4 µM | 21.8 µM | > 100 µM | 5.13 µM | > 100 µM | 40 µM | > 100 µM | 7.28 µM | 36.6 µM | 6.71 µM | 23.2 µM | 38.6 µM | > 100 µM | 21.7 µM | > 100 µM | 4.64 µM | 19.2 µM
N=C(N)c1ccc(-c2ccc(-c3cccs3)s2)cc1F | 1.57 µM and 1.44 µM | 3.04 µM and 2.84 µM | 1.29 µM | 2.93 µM | 1.8 µM | 4.49 µM | 2.28 µM | 4.74 µM | 1.54 µM | 3.85 µM | 1.25 µM | 2.64 µM | 1.27 µM | 2.69 µM | 1.34 µM | 2.66 µM | 1.61 µM | 3.03 µM | 1.55 µM | 3.34 µM
NC1=Nc2cc(OCCCCN3Cc4ccccc4C3)c(OCC3CC3)cc2C12CCCC2 | 3.24 µM | 11.4 µM | 1.57 µM | 3.07 µM | 1.49 µM | 4.18 µM | 1.42 µM | 2.98 µM | 3.11 µM | 14.7 µM | 1.22 µM | 2.6 µM | 1.71 µM | 3.1 µM | 1.19 µM | 2.48 µM | 1.75 µM | 3.45 µM | 1.46 µM | 2.88 µM
CS(=O)c1cc(=O)c2ccccc2s1 (configuration not stated) |  | 34.3 µM |  | 16.6 µM |  | 62.7 µM |  | 34.2 µM |  | 5.95 µM |  | 5.46 µM |  | 22.4 µM |  | 24.4 µM |  | 12.7 µM |  | 22.3 µM
COc1cnc2c(c1)C(=O)c1c-2n(CCCN2CCNCC2)c(=O)c2cc(F)ccc12 | 0.0623 µM | 1.15 µM | 1.05 µM | 2.56 µM | 2.08 µM | 16.9 µM | 0.478 µM | 2.34 µM | 0.892 µM | 2.49 µM | 0.27 µM | 1.73 µM | 0.217 µM | 1.65 µM | 0.368 µM | 2.87 µM | 0.267 µM | 1.43 µM | 0.133 µM | 1.12 µM
COc1ccc(-c2cc(-c3ccc(Cl)cc3)c(C#N)c(=O)n2CCCCCC(=O)Nc2ccccc2N)cc1 | 10.6 µM | > 100 µM | 4.02 µM | 36.5 µM | 3.06 µM | 29.7 µM | 4.22 µM | > 100 µM | 6.48 µM | > 100 µM | 1.77 µM | 5.68 µM | 1.93 µM | 3.73 µM | 1.4 µM | 5.83 µM | 28.5 µM | > 100 µM | 3.96 µM | > 100 µM
O=c1[nH]c(-c2ccncc2)nc2sc3c(c12)CCCCCC3 | > 100 µM | > 100 µM | > 100 µM | > 100 µM | > 100 µM | > 100 µM | > 100 µM | > 100 µM |  |  | > 100 µM | > 100 µM | > 100 µM | > 100 µM | 2.71 µM | > 100 µM | > 100 µM | > 100 µM | > 100 µM | > 100 µM
Cc1nn(-c2ccccc2)c2c1[C@@H](C)[C@H]1CC3(CC4(C)C[C@@H]3C1(C)c1c(C)nn(-c3ccccc3)c1N4C)N2C (some centres not stated) | > 100 µM | > 100 µM | > 100 µM | > 100 µM | > 100 µM | > 100 µM | > 100 µM | > 100 µM | 8.66 µM | > 100 µM | 3.41 µM | 48.2 µM |  |  |  |  | > 100 µM | > 100 µM |  | 
CC(C)CC(=O)O[C@H]1C(=O)O[C@@H]2C[C@H]3[C@H](C)C(=O)C(O[C@@H]4O[C@H](CO)[C@@H](O)[C@H](O)[C@H]4O)=C[C@]3(C)[C@H]3[C@@H](O)[C@H](O)[C@]4(C(=O)O)OC[C@]32[C@@H]14 | > 100 µM | > 100 µM | 20.6 µM | 54.4 µM | 39.8 µM | > 100 µM | 35.4 µM | > 100 µM |  |  | 10.8 µM | 38.7 µM | 28.4 µM | > 100 µM |  | > 100 µM |  | > 100 µM |  | > 100 µM
C=C1C(=O)O[C@H]2[C@H]1CC/C(COC(=O)NCc1ccc(Cn3c(=O)sn(CCCI)c3=O)cc1)=C\CC[C@@]1(C)O[C@@H]21 | 1.74 µM | 3.16 µM | 1.96 µM | 3.71 µM | 3.17 µM | 14.5 µM | 1.75 µM | 3.84 µM | 1.46 µM | 3.11 µM | 1.52 µM | 2.95 µM | 1.91 µM | 3.55 µM |  |  | 1.71 µM | 3.35 µM | 1.52 µM | 2.94 µM
COc1ncc(-c2ccc3nc(N)n(-c4ccccc4C(F)(F)F)c(=O)c3c2)cc1S(=O)(=O)Nc1ccc(F)cc1F | 0.897 µM | > 100 µM | 1.74 µM | 13.7 µM | 1.3 µM | 84.4 µM | 1.15 µM | > 100 µM | 3.64 µM | > 100 µM | 0.099 µM | 4.46 µM | 0.273 µM | 0.944 µM | 0.866 µM | > 100 µM | 6.73 µM | > 100 µM |  | 
CC(=O)O[C@@H]1[C@H]2O[C@H]2[C@H]2O[C@@]2(COC(=O)c2ccccc2)[C@H]1OC(C)=O |  | > 100 µM |  | > 100 µM |  | > 100 µM |  | > 100 µM |  | > 100 µM |  |  |  | > 100 µM |  | > 100 µM |  | > 100 µM |  | > 100 µM
CC1SC(c2ccc(OCc3ccccc3)cc2)N(NC(=O)C(O)(c2ccccc2)c2ccccc2)C1=O (configuration not stated) | 3.55 µM | 13.6 µM | 1.92 µM | 4.99 µM | 1.94 µM | 7.15 µM | 2.4 µM | 11.5 µM | 5.13 µM | 36 µM |  |  | 8.26 µM | 20.7 µM | 3.72 µM | 18.1 µM | 2.57 µM | 14.3 µM | 3.74 µM | 21.3 µM
C=CN(C(=O)N1CCN(c2cc3c(cc2F)c(=O)c(C(=O)O)cn3C2CC2)CC1)c1nc(-c2ccc(C)cc2)cs1 | 3.8 µM | > 100 µM | 3.85 µM | > 100 µM | 3.45 µM | 21.3 µM | 3.42 µM | > 100 µM | 3.56 µM | > 100 µM | 4 µM | > 100 µM |  |  | 2.13 µM | 6.59 µM | 3.89 µM | > 100 µM |  | 
